Test results: PMC11800497, “Antifungal activity and biocompatibility assessment with molecular docking and dynamic simulations of new pyrazole derivatives” (BMC Biotechnology, 2025)
Values after ≈ are worked out from the molar mass of the structure shown. “Also recorded” adds a separate entry of the source. Marks after values point to notes of the source that are not given here.

Key:
[1] = tested on: P. chrysogenum ATCC 10106; assay: Well-diffusion antifungal activity; format: cell-based, Penicillium chrysogenum; conditions: 1000 µg/ml; for zone of inhibition at 1000 µg/mL: Penicillium chrysogenum, ATCC10106, 72 h, 28 °C, read-out: IZD
Experimental: (§1) This study investigated strains of four distinct fungal pathogens: Aspergillus flavus ATCC 9643, A. niger ATCC 11414, Rhizopus oryzae ATCC 96382, and Penicillium chrysogenum ATCC 10106. Every strain was acquired from the Dep. of Micro. Fac. Agric., […] Uni., in Egypt. Initially kept and preserved in malt agar medium at 4 °C, the pathogens were then grown overnight at 28 °C in malt broth medium to evaluate the antifungal activity. Fungal pathogen standard inoculum was prepared by following the procedure described by. To assess the antifungal activity, the pathogens were first maintained and stored at 4 °C in malt agar medium. They were then cultured in malt broth medium for a whole night at 28 °C. According to [22], the well-diffusion technique was used to test the antifungal activity. This included using a 9.0 mm cork borer that had been sterilized to create wells in the malt agar layer. […] After adding 1000 μg/ml of control pyrazole compounds and the standard antifungal (Fluconazole 1000 μg/ml) to each well, the petri dishes were incubated at 28 °C for 72 h. The diameter of the standard reference antifungal was compared to the millimeters measurements of the inhibitory zones. The formula according to [22] was utilized to compute the activity index (AI).1 [drawing 1]

A. flavus ATCC 9643 [2] = assay: Well-diffusion antifungal activity; format: cell-based, Aspergillus flavus; conditions: 1000 µg/ml; for zone of inhibition at 1000 µg/mL: Aspergillus flavus, ATCC9643, read-out: IZD
Experimental: as §1

A. niger ATCC 11414 [3] = assay: Well-diffusion antifungal activity; format: cell-based, Aspergillus niger; conditions: 1000 µg/ml, 72 h, 28 °C; for zone of inhibition at 1000 µg/mL: Aspergillus niger, ATCC11414, read-out: IZD
Experimental: This study investigated strains of four distinct fungal pathogens: Aspergillus flavus ATCC 9643, A. niger ATCC 11414, Rhizopus oryzae ATCC 96382, and Penicillium chrysogenum ATCC 10106. Every strain was acquired from the Dep. of Micro. Fac. Agric., […] Uni., in Egypt. Initially kept and preserved in malt agar medium at 4 °C, the pathogens were then grown overnight at 28 °C in malt broth medium to evaluate the antifungal activity. Fungal pathogen standard inoculum was prepared by following the procedure described by [19, 20]. To assess the antifungal activity, the pathogens were first maintained and stored at 4 °C in malt agar medium. They were then cultured in malt broth medium for a whole night at 28 °C. According to [22], the well-diffusion technique was used to test the antifungal activity. This included using a 9.0 mm cork borer that had been sterilized to create wells in the malt agar layer. […] After adding 1000 μg/ml of control pyrazole compounds and the standard antifungal (Fluconazole 1000 μg/ml) to each well, the petri dishes were incubated at 28 °C for 72 h. The diameter of the standard reference antifungal was compared to the millimeters measurements of the inhibitory zones. The formula according to [22] was utilized to compute the activity index (AI).1 [drawing 1]

A. flavus = tested on: A. flavus; parameters: method as in PMID 31926784; conditions: cited from earlier work
A. fumigatus = tested on: A. fumigatus; parameters: method as in PMID 31926784; conditions: cited from earlier work
A. niger = tested on: A. niger; parameters: method as in PMID 31926784; conditions: cited from earlier work
R. oryzae ATCC 96382 = assay: Well-diffusion antifungal activity; format: cell-based, Rhizopus oryzae; conditions: Rhizopus arrhizus, ATCC96382; 1000 µg/ml, 72 h, 28 °C; read-out: IZD
Experimental: as §1

A. niger ATCC 11414 [4] = assay: Minimal fungal inhibitory concentration (MFIC); format: cell-based, Aspergillus niger; parameters: key to Growth in MFIC test: -: No detected growth; +: Growth observed; conditions: 72 h, 28 °C
Experimental: (§2) In diagnostic laboratories, minimum inhibitory concentrations (MICs) are essential for confirming fungal resistance to an antifungal drug and monitoring the effectiveness of new antifungal medicines. MICs were computed in accordance with the recommendations established by the National Committee for Clinical Laboratory Standards (CLS). In dimethyl sulfoxide (DMSO), pyrazoles were serially diluted twice (1/2, 1/4, and 1/8) and heated at 70 °C for 10 min to get final concentrations of 1000–125 μg/ml, respectively. After that, these dilutions were put into wells that had already been created on plates with fungal infestations. Using a calibrated micropipette, fungus spore suspensions were prepared and added to malt agar welled plates then incubated for 72 h at 28 °C.

A. flavus ATCC 9643 [5] = assay: Minimal fungal inhibitory concentration (MFIC); format: cell-based, Aspergillus flavus; parameters: key to Growth in MFIC test: -: No detected growth; +: Growth observed; conditions: 72 h, 28 °C
Experimental: as §2

A. flavus ATCC 9643 [6] = assay: Minimal lethal fungal concentration (MLFC); format: cell-based, Aspergillus flavus; parameters: key to Growth in MLFC test: -: No detected growth; +: Growth observed
Experimental: (§3) The term “minimal lethal fungal concentration” (MLFC) refers to the lowest concentration of an antifungal drug that may […]. The fungus was initially subjected to different concentrations of the pyrazole compounds in order to ascertain this concentration. After that, the growth from the MIFC stage was moved to regular malt agar plates. After that, these plates are incubated for 72 h at 28 °C. After then, any growth—or lack thereof—is noted and studied.
(§4) Following the acquisition of the MFIC and MLFC records, the ratio was computed. The fungicidal activity of a pyrazole compound is defined as a ratio […].

A. niger ATCC 11414 [7] = assay: Minimal lethal fungal concentration (MLFC); format: cell-based, Aspergillus niger; parameters: key to Growth in MLFC test: -: No detected growth; +: Growth observed
Experimental: as §3, §4

[8] = tested on: A. niger ATCC 11414 and A. flavus ATCC 9643; assay: Activity spectrum in MFIC/MLFC tests (share of strains inhibited); format: cell-based, Aspergillus niger, Aspergillus flavus
Experimental: as §2, §3

[9] = Biocompatibility, MTT assay; format: cell-based, human; conditions: human, HFB4 normal human skin cells
Experimental: (§5) A complete monolayer sheet was created by incubating the 96-well tissue culture plate at 37 °C for 24 h following inoculation with 1 × 10^5 cells/ml (100 µl/well), following the procedure described by. Following the establishment of a confluent sheet of cells, the growth material was collected from the 96-well micro titer plates, and the cell monolayer underwent two washing media washes. […] They then evaluated 0.1 ml of each dilution in several wells. We looked at the cells for physical signs of toxicity, including granulation, rounding, shrinkage, and partial or complete loss of the monolayer. Following the phosphate buffer solution’s preparation, each well received 20 µl of a 5 mg/ml MTT (3-(4,5-dimethylthiazol-2-yl-)-2,5 diphenyltetrazolium bromide) solution from Bio Basic Canada Inc. After that, place it on a shaking table and shake it for five minutes at 150 rpm to completely integrate the MTT. to allow MTT to metabolize, followed by incubation for 4 h at 37 °C with 5% CO2. Media was taken out if necessary, and paper towels were used to wipe out any remaining material from the plate. One may re-dissolve formazan, a metabolic product of MTT, in 200 µL of DMSO. Put on a shaking table and shaken for five minutes at 150 rpm to fully mix the formazan and solvent. At 560 nm, optical density was measured, and at 620 nm, background was subtracted. There should be a direct relationship between optical density and cell number.3 [drawing 3]

[10] = tested on: HFB4 normal human skin cell line; assay: Biocompatibility, MTT assay; format: cell-based
Experimental: as §5

[11] = relative to Fluconazole 1000 µg/ml

O=C1c2c(Br)c(Br)c(Br)c(Br)c2C(=O)N1N=Cc1cn(-c2ccccc2)nc1-c1ccccc1 [compound 6, 4,5,6,7-tetrabromo-2-(((1,3-diphenyl-1H-pyrazol-4-yl)methylene)amino)isoindoline-1,3-dione]
zone of inhibition at 1000 µg/mL [1]: 0 mm
zone of inhibition at 1000 µg/mL (A. flavus ATCC 9643 [2]; 72 h, 28 °C): 0 mm
zone of inhibition at 1000 µg/mL (A. niger ATCC 11414 [3]): 0 mm
minimum inhibitory concentration (A. flavus): 250 µg/mL (≈ 353 µM)
minimum inhibitory concentration (A. fumigatus): 250 µg/mL (≈ 353 µM)
minimum inhibitory concentration (A. niger): 250 µg/mL (≈ 353 µM)
zone of inhibition at 1000 µg/mL (R. oryzae ATCC 96382): 0 mm

COc1ccc(NC(=O)/C(C#N)=C/c2cn(-c3ccccc3)nc2-c2ccccc2)cc1 [3b]
Growth in MFIC test (A. niger ATCC 11414 [4]; 125 µg/ml): +
Growth in MFIC test (A. niger ATCC 11414 [4]; 250 µg/ml): -
Growth in MFIC test (A. niger ATCC 11414 [4]; 500 µg/ml): -
Growth in MFIC test (A. niger ATCC 11414 [4]; 1000 µg/ml): -
Dose of MFIC (A. niger ATCC 11414 [4]): 250 µg/mL
AI (activity index) [1, 11]: 0.87
zone of inhibition at 1000 µg/mL [1]: 20 ± 0.11 mm
IZD (A. flavus ATCC 9643 [2]; 72 h, 28 °C): 30 ± 0.13^b mm
AI (activity index) (A. flavus ATCC 9643 [2]; [11]): 1.0
zone of inhibition at 1000 µg/mL (A. flavus ATCC 9643 [2]; 72 h, 28 °C): 30 mm
Growth in MFIC test (A. flavus ATCC 9643 [5]; 125 µg/ml): +
Growth in MFIC test (A. flavus ATCC 9643 [5]; 250 µg/ml): -
Growth in MFIC test (A. flavus ATCC 9643 [5]; 500 µg/ml): -
Growth in MFIC test (A. flavus ATCC 9643 [5]; 1000 µg/ml): -
Dose of MFIC (A. flavus ATCC 9643 [5]): 250 µg/mL
IZD (A. niger ATCC 11414 [3]): 32 ± 0.14^a mm
zone of inhibition at 1000 µg/mL (A. niger ATCC 11414 [3]): 32 mm
Antifungal effect (ratio of MLFC and MFIC) (A. flavus ATCC 9643 [6]): 2
Growth in MLFC test (A. flavus ATCC 9643 [6]; 125 µg/ml, 72 h, 28 °C): +
Growth in MLFC test (A. flavus ATCC 9643 [6]; 250 µg/ml, 72 h, 28 °C): +
Growth in MLFC test (A. flavus ATCC 9643 [6]; 500 µg/ml, 72 h, 28 °C): -
Growth in MLFC test (A. flavus ATCC 9643 [6]; 1000 µg/ml, 72 h, 28 °C): -
Dose of MLFC (A. flavus ATCC 9643 [6]; 72 h, 28 °C): 500 µg/mL
Antifungal effect (ratio of MLFC and MFIC) (A. niger ATCC 11414 [7]): 2
Growth in MLFC test (A. niger ATCC 11414 [7]; 125 µg/ml, 72 h, 28 °C): +
Growth in MLFC test (A. niger ATCC 11414 [7]; 250 µg/ml, 72 h, 28 °C): +
Growth in MLFC test (A. niger ATCC 11414 [7]; 500 µg/ml, 72 h, 28 °C): -
Growth in MLFC test (A. niger ATCC 11414 [7]; 1000 µg/ml, 72 h, 28 °C): -
Dose of MLFC (A. niger ATCC 11414 [7]; 72 h, 28 °C): 500 µg/mL
Activity spectrum (MLFC) ([8]; 125 µg/ml): 0/2 (0%)
Activity spectrum (MLFC) ([8]; 250 µg/ml): 0/2 (0%)
Activity spectrum (MLFC) ([8]; 500 µg/ml): 2/2 (100%)
Activity spectrum (MLFC) ([8]; 1000 µg/ml): 2/2 (100%)
zone of inhibition at 1000 µg/mL (R. oryzae ATCC 96382): 0 mm
viability at 31.25 µg/ml ([9]; 31.25 µg/ml): 99.9%
viability at 62.5 µg/ml ([9]; 62.5 µg/ml): 99.8%
viability at 125 µg/ml ([9]; 125 µg/ml): 99.9%
viability at 250 µg/ml ([9]; 250 µg/ml): 99.8%
viability at 500 µg/ml ([9]; 500 µg/ml): 99.6%
viability at 1000 µg/ml ([9]; 1000 µg/ml): 99.2%
Toxicity % ([10]; 31.25 µg/ml): 0.177%
Toxicity % ([10]; 62.5 µg/ml): 0.118%
Toxicity % ([10]; 125 µg/ml): 0.118%
Toxicity % ([10]; 250 µg/ml): 0.236%
Toxicity % ([10]; 500 µg/ml): 0.354%
Toxicity % ([10]; 1000 µg/ml): 0.767%
Changes of HFB4 cells ([10]; concentrations 31.25–1000 µg/ml): no significant changes
IC50 (cytotoxicity) ([10]; tested up to 1000 µg/ml): no IC50 dose obtained; also recorded: no IC50 dose was determined
